Patent US20260285853A1, “COMPOUNDS AND METHODS FOR MODULATING SPLICING” (REMIX THERAPEUTICS INC., priority 2023, published 2026)
Read-outs that look alike come from different tables or passages of the source.

Tests used:
Format in all cases: cell-based
MYB mRNA [1] = test: Gene panel canonical junction qPCR assay, decrease in CJ mRNA, Table 3
Method: (§1) Compounds described herein were used to modulate RNA transcript abundance in cells. The expression of a target mRNA was measured by detecting the formation of an exon-exon junction in the canonical transcript (CJ). A compound mediated exon-inclusion event was detected by observing an increase in formation of a new junction with an alternative exon (AJ). Real-time qPCR assays were used to detect these splicing switches and interrogate the potency of various compounds towards different target genes. A high-throughput real time quantitative PCR (RT-qPCR) assay was developed to measure these two isoforms of the mRNA (CJ and AJ) for exemplary genes, such as HTT, SMN2, and MYB, together with a control housekeeping gene, GAPDH or GUSB or PPIA, used for normalization. Briefly, the A673 or K562 cell line was treated with various compounds described herein (e.g., compounds of Formula (I)). After treatment, the levels of the HTT, MYB, or SMN2 mRNA targets were determined from each sample of cell lysate by cDNA synthesis followed by qPCR.
(§2) The A673 cell line was cultured in DMEM with 10% FBS. Cells were diluted with full growth media and plated in a 96-well plate (15,000 cells in 100 ul media per well). The plate was incubated at 37° C. with 5% CO2 for 24 hours to allow cells to adhere. An 11-point 3-fold serial dilution of the compounds was made in DMSO then diluted in media in an intermediate plate. Compounds were transferred from the intermediate plate to the cell plate with the top dose at a final concentration of 10 uM in the well. Final DMSO concentration was kept at or below 0.25%. The cell plate was returned to the incubator at 37° C. with 5% CO2 for an additional 24 hours.
(§3) The K562 cell line was cultured in IMDM with 10% FBS. For K562, cells were diluted with full growth media and plated in either a 96-well plate (50,000 cells in 50 uL media per well) or a 384-well plate (8,000-40,000 cells in 45 uL media per well). An 11-point 3-fold serial dilution of the compounds were made in DMSO then diluted in media in an intermediate plate. Compound was transferred from the intermediate plate to the cell plate with the top dose at a final concentration of 10 uM in the well. Final DMSO concentration was kept at or below 0.25%. Final volume was 100 uL for 96-well plate and 50 uL for 384-well plate. The cell plate was then placed in an incubator at 37° C. with 5% CO2 for 24 hours.
(§4) The data analysis was performed by first determining the ΔCt vs the housekeeper gene. This ΔCt was then normalized against the DMSO control (ΔΔCt) and converted to RQ (relative quantification) using the 2^(−ΔΔCt) equation. The RQ were then converted to a percentage response by arbitrarily setting an assay window of 3.5 and 4.0 ΔCt for HTT-CJ and MYB-CJ respectively and an assay window of 9 and 3 ΔCt for HTT-AJ and MYB-AJ in 96 well format (50,000 K562 cells/well and 15,000 A673 cells per well) and an assay window of 3 and 4 ΔCt for HTT-CJ and MYB-CJ respectively and an assay window of 5 and 3 ΔCt for HTT-AJ and MYB-AJ respectively in 384 well format (8,000 K562 cells/well example). […] The percentage response was then fitted to the 4 parametric logistic equation to evaluate the concentration dependence of compound treatment. The increase in AJ mRNA is reported as AC50 (compound concentration having 50% response in AJ increase) while the decrease in CJ mRNA levels is reported as IC50 (compound concentration having 50% response in CJ decrease).
(§5) Additional studies were carried out for a larger panel of genes using the protocol provided above. The junction between flanking upstream and downstream exons was used to design canonical junction qPCR assays. At least one of the forward primer, reverse primer or the CY5-labeled 5′ nuclease probe (with 3′ quencher such as ZEN/Iowa Black FQ) was designed to overlap with the exon junction to capture the CJ mRNA transcript. […]

HTT mRNA [2] = test: as above
Method: as §1, §2, §3, §4, §5

HTT mRNA [3] = test: Splicing RT-qPCR assay (THP), Table 2A
MYB mRNA [4] = test: Splicing RT-qPCR assay (THP), Table 2A
[5] = test system: SH-SY5Y (human neuroblastoma) cells; test: Cell viability, Cell Titer Glo 2.0 assay; details: read-out: Viability SHSY5Y.3 GI50
Method: Compounds described herein were screened for toxicity in K562 (human chronic myelogenous leukemia) and SH-SY5Y (human neuroblastoma) cells using a Cell Titer Glo 2.0 assay.
• Promega CellTiter-Glo® 2.0 Cell Viability Assay (cat #G9241) • Corning 384-well TC-treated microplates (cat #3570)
Cells were plated at 500 cells/well (K562 cells) in 45 μL of IMDM supplemented with 10% FBS in a 384-well opaque plate. Wells containing only medium were used as a blank control. Test compounds (e.g., compounds of Formula (I) or (II) were first serially diluted in DMSO then diluted 1:100 with IMDM+10% FBS. The final concentration of DMSO was 0.1% in each well. The cells were incubated for 72 hours at 37° C. and 5% CO2 before assaying with Cell Titer Glo 2.0 reagent.

[6] = decrease in CJ mRNA levels, canonical junction qPCR, gene panel
[7] = Table 2A, THP, HTT alternative junction (AJ) mRNA, read-out: HTT AJ (AC50, increase in alternative junction mRNA)
[8] = Table 2A, THP, HTT canonical junction (CJ) mRNA, read-out: HTT CJ (IC50, decrease in canonical junction mRNA)
[9] = Table 2A, THP, MYB alternative junction (AJ) mRNA, read-out: MYB AJ (AC50, increase in alternative junction mRNA)
[10] = Table 2A, THP, MYB canonical junction (CJ) mRNA, read-out: MYB CJ (IC50, decrease in canonical junction mRNA)
[11] = decrease in canonical junction (CJ) mRNA, gene panel qPCR, Table 3
[12] = Table 2A (THP), AJ mRNA increase, read-out: HTT AJ (increase in alternative junction mRNA, AC50)
[13] = Table 2A (THP), CJ mRNA decrease, read-out: HTT CJ (decrease in canonical junction mRNA, IC50)
[14] = Table 2A (THP), AJ mRNA increase, read-out: MYB AJ (increase in alternative junction mRNA, AC50)
[15] = Table 2A (THP), CJ mRNA decrease, read-out: MYB CJ (decrease in canonical junction mRNA, IC50)

Row | Compound | IC50 (MYB mRNA [1]; [6]) [µM] | IC50 (HTT mRNA [2]; [6]) [µM] | IC50 (HTT mRNA [3]; [8]) [µM] | IC50 (MYB mRNA [4]; [10]) [µM] | GI50 [5] [µM] | IC50 (MYB mRNA [1]; [11]) [µM] | IC50 (HTT mRNA [2]; [11]) [µM] | IC50 (HTT mRNA [3]; [13]) [µM] | IC50 (MYB mRNA [4]; [15]) [µM] | AC50 (HTT mRNA [3]; [7]) [µM] | AC50 (MYB mRNA [4]; [9]) [µM] | AC50 (HTT mRNA [3]; [12]) [µM] | AC50 (MYB mRNA [4]; [14]) [µM]
1 | C[C@H]1CN(c2ccc(C(=O)Nc3cc(F)c4nn(C)cc4c3)c3nc(CNS(C)(=O)=O)sc23)C[C@H](C)N1 [Compound 706, 7-[(3S,5S)-3,5-dimethylpiperazin-1-yl]-N-(7-fluoro-2-methyl-indazol-5-yl)-2-(methanesulfonamidomethyl)-1,3-benzothiazole-4-carboxamide] | 0.1 to 1 | 0.1 to 1 | 0.1 to 1 | 0.1 to 1 | 0.1 to 1 |  |  |  |  | 0.1 to 1 | < 0.1 |  | 
2 | Cn1cc2cc(NC(=O)c3ccc(N4CCC(NC5CC5)CC4)c4cn(C)nc34)c(F)cc2n1 [Compound 459, 4-[4-(cyclopropylamino)-1-piperidyl]-N-(6-fluoro-2-methyl-indazol-5-yl)-2-methyl-indazole-7-carboxamide] |  |  |  |  | 1 to 10 | 0.1 to 1 | 1 to 10 | 1 to 10 | 0.1 to 1 |  |  | > 10 | 0.1 to 1
3 | COc1cc2nc(CF)cn2cc1NC(=O)c1c(F)cc(N2CCC(NC3CC3)CC2)c2cn(C)nc12 [Compound 407, [cyclopropyl-[1-[6-fluoro-7-[[2-(fluoromethyl)-7-methoxy-imidazo[1,2-a]-pyridin-6-yl]carbamoyl]-2-methyl-indazol-4-y1]-4-piperidyl]amino] 2,2,2-trifluoroacetate] |  |  |  |  | 1 to 10 | < 0.1 | > 10 | > 10 | < 0.1 |  |  | > 10 | < 0.1
4 | COc1cn2nc(C)nc2cc1NC(=O)c1ccc(N2CCC(NC3CC3)CC2)c2cn(C)nc12 [Compound 573, 4-[4-(cyclopropylamino)-1-piperidyl]-N-(6-methoxy-2-methyl-[1,2,4]triazolo-[1,5-a]-pyridin-7-yl)-2-methyl-indazole-7-carboxamide] |  |  |  |  | > 10 | > 10 | > 10 | > 10 | > 10 |  |  | > 10 | > 10
5 | CCNC1CCN(c2cc(Cl)c(C(=O)Nc3cn4cc(C)nc4c(F)c3OC)c3nn(C)cc23)CC1 [Compound 335, 6-chloro-4-[4-(ethylamino)-1-piperidyl]-N-(8-fluoro-7-methoxy-2-methyl-imidazo[1,2-a]pyridin-6-yl)-2-methyl-indazole-7-carboxamide] |  |  |  |  | < 0.1 | < 0.1 | < 0.1 | < 0.1 | < 0.1 |  |  | < 0.1 | < 0.1
6 | Cc1cn2cc(NC(=O)c3ccc(N4CCC(NC5CC5)CC4)c4cn(C)nc34)nc2c(CNC(C)C(F)(F)F)n1 (stereo not drawn) [Compound 791, 4-[4-(cyclopropylamino)-1-piperidyl]-2-methyl-N-[6-methyl-8-[[(2,2,2-trifluoro-1-methyl-ethyl)amino]methyl]imidazo[1,2-a]pyrazin-2-yl]indazole-7-carboxamide] | > 10 | > 10 | > 10 | > 10 | 1 to 10 |  |  |  |  | > 10 | > 10 |  | 

Further lines, with some results ahead:

Row | IC50 (MYB mRNA [1]; [6]) [µM] | IC50 (HTT mRNA [2]; [6]) [µM] | IC50 (HTT mRNA [3]; [8]) [µM] | IC50 (MYB mRNA [4]; [10]) [µM] | GI50 [5] [µM] | IC50 (MYB mRNA [1]; [11]) [µM] | IC50 (HTT mRNA [2]; [11]) [µM] | IC50 (HTT mRNA [3]; [13]) [µM] | IC50 (MYB mRNA [4]; [15]) [µM] | Compound | AC50 (HTT mRNA [3]; [7]) [µM] | AC50 (MYB mRNA [4]; [9]) [µM] | AC50 (HTT mRNA [3]; [12]) [µM] | AC50 (MYB mRNA [4]; [14]) [µM]
7 | < 0.1 | > 10 | > 10 | < 0.1 | 1 to 10 |  |  |  |  | COc1nc2c(C(=O)Nc3cc(CNC(C)=O)c4nn(C)cc4c3)ccc(N3C[C@H](C)N[C@@H](C)C3)c2s1 [Compound 762, N-[7-(acetamidomethyl)-2-methyl-indazol-5-yl]-7-[(3S,5S)-3,5-dimethylpiperazin-1-yl]-2-methoxy-1,3-benzothiazole-4-carboxamide] | > 10 | < 0.1 |  | 
8 | > 10 | > 10 | > 10 | > 10 | > 10 |  |  |  |  | Cc1cn2cc(NC(=O)c3ccc(N4CCNCC4)c4cn(C)nc34)nc2c(CNS(C)(=O)=O)n1 [Compound 811] | > 10 | 1 to 10 |  | 
9 |  |  |  |  | 1 to 10 | > 10 | > 10 | > 10 | > 10 | Cc1cn2cc(NC(=O)c3ccc(N4CCC(NC5CC5)CC4)c4cn(C)nc34)nc2c(-c2ccns2)n1 [Compound 486, 4-(4-(cyclopropylamino)-piperidin-1-yl)-N-(8-(isothiazol-5-yl)-6-methyl-imidazo[1,2-a]-pyrazin-2-yl)-2-methyl-2H-indazole-7-carboxamide] |  |  | > 10 | > 10
10 | 0.1 to 1 | > 10 | > 10 | 0.1 to 1 | 1 to 10 |  |  |  |  | COc1nc2c(C(=O)Nc3cc4cn(C)nc4c(F)c3O)ccc(N3C[C@H](C)N[C@@H](C)C3)c2s1 [Compound 761, 7-[(3S,5S)-3,5-dimethylpiperazin-1-yl]-N-(7-fluoro-6-hydroxy-2-methyl-indazol-5-yl)-2-methoxy-1,3-benzothiazole-4-carboxamide] | > 10 | 0.1 to 1 |  | 
11 | > 10 | > 10 | > 10 | > 10 | > 10 |  |  |  |  | Cc1cn2cc(NC(=O)c3ccc(N4CCC(NC5CC5)CC4)c4cn(C)nc34)nc2c(CCN)n1 [Compound 753, N-[8-(2-aminoethyl)-6-methyl-imidazo[1,2-a]pyrazin-2-yl]-4-[4-(cyclopropylamino)-1-piperidyl]-2-methyl-indazole-7-carboxamide] | > 10 | > 10 |  | 
12 | 1 to 10 | 1 to 10 | 1 to 10 | 1 to 10 | > 10 |  |  |  |  | Cc1cn2cc(NC(=O)c3ccc(NC(=O)C4CCCN4)c4[nH]cnc34)cc(F)c2n1 (stereo not drawn) [Compound 613, N-(8-fluoro-2-methyl-imidazo[1,2-a]pyridin-6-yl)-7-(pyrrolidine-2-carbonylamino)-1H-benzimidazole-4-carboxamide] | > 10 | 1 to 10 |  | 
